# From patent US4577016A, “Process for the preparation of penem derivatives” (Farmitalia Carlo Erba S.p.A., priority 1982, dated 1986)
# Counter-ions that a name gives are not always drawn.
# What was measured:
# Type in all cases: cell-based
# Escherichia coli 1507 E = assay: activity against Escherichia coli 1507 E; settings: in words
# Escherichia coli TEM = assay: activity against Escherichia coli TEM; settings: in words
# [1] = tested on: Klebsiella pneumoniae ATCC 10031; assay: activity against Klebsiella pneumoniae ATCC 10031; settings: in words
# Proteus vulgaris X 20 = assay: activity against Proteus vulgaris X 20; settings: in words
# Gram-positive bacteria = assay: activity against Gram-positive bacteria; settings: in words
# Gram-negative bacteria = assay: minimal inhibiting concentrations against Gram-negative bacteria; settings: in words
# Streptococcus pyogenes = assay: minimal inhibiting concentration against Streptococcus pyogenes; settings: sodium salt
# Streptococcus pneumoniae = assay: minimal inhibiting concentration against Streptococcus pneumoniae; settings: sodium salt
# [2] = tested on: penicillinase producer Staphylococcus aureus; assay: minimal inhibiting concentration against penicillinase producer Staphylococcus aureus; settings: sodium salt
# [3] = tested on: penicillinase non-producer Staphylococcus aureus; assay: minimal inhibiting concentration against penicillinase non-producer Staphylococcus aureus; settings: sodium salt
smiles,measurement,setting,value
"C[C@@H](O)[C@H]1C(=O)N2C(C(=O)O)=C(CSc3nc(=O)c(O)nn3C)S[C@H]12 [(5R,6S)-6-[1(R)-hydroxyethyl]-2-(2-methyl-5-oxo-6-hydroxy-2,5-dihydro-1,2,4-triazin-3-yl)-thiomethyl-penem-3-carboxylic acid, disodium salt]",activity against Gram-negative bacteria,Escherichia coli 1507 E,particularly favourable activity
same,activity against Gram-negative bacteria,Escherichia coli TEM,particularly favourable activity
same,activity against Gram-negative bacteria,[1],particularly favourable activity
same,activity against Gram-negative bacteria,Proteus vulgaris X 20,particularly favourable activity
"C[C@@H](O)[C@H]1C(=O)N2C(C(=O)O)=C(CSc3ccc4nnnn4n3)S[C@H]12 [(5R,6S)-6-[1(R)-hydroxyethyl]-2-{tetrazolo[1,5-b]pyridazin-6-yl}-thiomethyl-penem-3-carboxylic acid]",activity against Gram-positive bacteria,Gram-positive bacteria,particularly active
"C[C@@H](O)[C@H]1C(=O)N2C(C(=O)O)=C(CSc3nnc(SCC(=O)O)s3)S[C@H]12 [(5R,6S)-6-[1(R)-hydroxyethyl]-2-(5-carboxymethylthio-1,3,4-thiadiazol-2-yl)-thiomethyl-penem-3-carboxylic acid]",minimal inhibiting concentrations against Gram-positive bacteria,Gram-positive bacteria,particularly favourable values
same,minimal inhibiting concentrations against Gram-negative bacteria,Gram-negative bacteria,particularly favourable values
"C[C@@H](O)[C@H]1C(=O)N2C(C(=O)O)=C(CSc3nnnn3C)S[C@H]12 [(5R,6S)-6-[1(R)-hydroxyethyl]-2-[1-methyl-1,2,3,4-tetrazol-5-yl)-thiomethyl]-penem-3-carboxylic acid]",minimal inhibiting concentrations against Gram-positive bacteria,Gram-positive bacteria,particularly favourable values
same,minimal inhibiting concentrations against Gram-negative bacteria,Gram-negative bacteria,particularly favourable values
"C[C@@H](O)[C@H]1C(=O)N2C(C(=O)O)=C(CSc3nnnn3CCC(N)=O)S[C@H]12 [(5R,6S)-6-[1(R)-hydroxyethyl]-2-[1-(2-aminocarbonylethyl)-1,2,3,4-tetrazol-5-yl]-thiomethyl-penem-3-carboxylic acid]",minimal inhibiting concentrations against Gram-positive bacteria,Gram-positive bacteria,particularly favourable values
same,minimal inhibiting concentrations against Gram-negative bacteria,Gram-negative bacteria,particularly favourable values
"C[C@@H](O)[C@H]1C(=O)N2C(C(=O)O)=C(CSc3ccc4nnnn4n3)S[C@H]12 [Sodium(5R,6S)-6-[1(R)-hydroxyethyl]-2-(tetrazolo[1,5-b]-pyridazin-6-yl)-thiomethyl-penem-3-carboxylate]",MIC,Streptococcus pyogenes,2 ng/mL
same,MIC,Streptococcus pneumoniae,2 ng/mL
same,MIC,[2],4 ng/mL
same,MIC,[3],4 ng/mL
